Consider five molecules from patent publication US20020165208A1, “Compositions and methods relating to hypertension” (priority 2000, published 2002).

The subject of series [1] is renal vasculature. Conditions: synthetic 20-HETE; cited from earlier work.
For series [2], the target named is T1, recombinant Cyp 4a14 (Mus musculus, UniProt O35728).
T1 construct: A KpnI-XhoI cDNA fragment (1.9 kb) was subcloned into the pBlueBac IV vector; made in house; host or cells: Sf9 insect cells / baculovirus (pBlueBac IV, Invitrogen)
T1 sequence (O35728 5-507): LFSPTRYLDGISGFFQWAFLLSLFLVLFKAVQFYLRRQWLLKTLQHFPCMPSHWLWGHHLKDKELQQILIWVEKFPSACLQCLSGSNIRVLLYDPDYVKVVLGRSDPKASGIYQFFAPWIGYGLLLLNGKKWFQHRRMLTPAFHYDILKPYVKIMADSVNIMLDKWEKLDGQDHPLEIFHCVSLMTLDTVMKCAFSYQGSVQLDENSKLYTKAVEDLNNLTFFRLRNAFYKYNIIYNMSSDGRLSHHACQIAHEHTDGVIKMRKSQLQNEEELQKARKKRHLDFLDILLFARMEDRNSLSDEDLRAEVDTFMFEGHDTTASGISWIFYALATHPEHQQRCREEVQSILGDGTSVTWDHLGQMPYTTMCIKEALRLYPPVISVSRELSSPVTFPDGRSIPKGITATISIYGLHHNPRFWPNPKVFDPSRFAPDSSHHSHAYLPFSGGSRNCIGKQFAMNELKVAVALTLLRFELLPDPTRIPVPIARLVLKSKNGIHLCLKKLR
Briefly: Substrate oxidation by purified recombinant Cyp 4a14. The series is classed as biochemical. As to the method: (§1) Kidney microsomes were isolated from treated and nontreated Cyp 4a14 (+/+) and (−/−) mice (21), suspended (1-2 mg of protein/ml) in 0.05 M Tris·Cl (pH 7.4) containing 0.15 M KCl and 10 mM MgCl2, and incubated with [1^14C]AA or lauric acid (100 μM, 5 μCi/μmol each) and NADPH (1 mM) at 35° C. Reaction products were resolved and quantified as described (21). For antibody inhibition, microsomes were incubated (30 min at 22° C.) with rabbit anti-CYP 4A2 or nonimmune serum (0.1-1 mg of protein/ml) before enzymatic analysis. Recombinant Cyp 4a14 (0.1-1 μM) was incubated with [1-^14C]-labeled AA or lauric acid in the presence of purified P450 reductase, cytochrome b5, dilauroylphosphatidylcholine, and NADPH (1 mM), as described (15, 21). Urine collections (8-12 h) were incubated at 35° C. for 2-3 h with -glucoronidase (22) (Sigma) (1 mg/ml) and, after purification, the levels of 19- and 20-HETE were quantified by mass spectroscopy (22).

The subject of series [3] is Cyp 4a12 transcripts. Conditions: DHT-treated castrated Cyp 4a14 (−/−) mice.
Experimental: Top frame: Samples of total RNA (5-10 μg each) from the kidneys of control (A), castrated (B), castrated and DHT-treated (C) males or from control (D) and DHT-treated (E) females were fractionated by agar electrophoresis, transferred to nitrocellulose membranes, and hybridized to ^32P-labeled DNA probes (400-500 bp) coding for segments of the 3′-untranslated end of the Cyp 4a10, 4a12, and 4a14 cDNAs. After high-stringency washes, the membranes were exposed to x-ray films for 4, 2, or 21 h for male Cyp 4a10, 4a12, and 4a14, respectively, and 6, 21, or 12 h for female Cyp 4a10, 4a12, and 4a14, respectively. RNA loadings were normalized by using a -actin cDNA probe. […] Bottom frame: Dehydrated paraffin sections from the kidneys of control (A and A′), castrated (B and B′) and DHT-treated castrated male mice (C and C′) were hybridized to [^35S]-labeled riboprobes encoding 3′-end untranslated segments of the Cyp 4a12 cDNA. After washing, RNase A treatment, and dehydration, the sections were dipped in emulsion (IlfordK5; Knutsford, Cheshire, U.K.), exposed for 4-5 days at 4° C., and developed by using D-19 (Kodak). Slides were counterstained with hematoxylin. Photomicrographs were obtained by using either dark-field (3×) (A-C) or bright-field (100×) (A′, B′, and C′) optics.
Series [4] relates to Arachidonic acid ω-hydroxylase of mouse kidney microsomes. Conditions: DHT pellets. As to the method: as §1
Series [5] in a line: Plasma androgen levels (TST and DHT) by RIA in castrated, pellet-implanted mice. Conditions: for concentration at 10 days: male, mouse, in vivo, 5 mg DHT/day, Plasma DHT level, DHT-releasing pellets, ten days after implantation.
The subject of series [6] is Cyp 4a14 (+/+) and (−/−) mice. Briefly: Arterial blood pressure of conscious mice by right carotid artery catheter. It is filed as in vivo, mouse. The settings on record: for Effect on hypertensive phenotype (blood pressure): castrated Cyp 4a14 (−/−) mice, androgen-releasing pellets. As to the method: The arterial blood pressures of conscious 12- to 14-week-old mice were measured by means of a right carotid artery catheter (300-500 μm OD). After surgery (24-48 h), animals were allowed to become familiar with the environment and, after stabilization, their arterial blood pressures were monitored continuously for at least 30 min by using a pressure transducer. […] For measurements of afferent arteriolar diameter, male kidneys were perfused in vitro with a physiological salt solution supplemented with a mixture of L-amino acids (23), and the juxtamedullary vasculature was monitored continuously by videomicroscopy, as described (23). The relationship between afferent arteriolar diameter and perfusion pressure was determined at 80, 120, and 160 mm Hg. Perfusion pressure changes were followed by a 3-min equilibration before steady-state diameter measurements (23).

The target of series [7] is T2, rat CYP 4A2 (Rattus norvegicus, UniProt P20816).
T2 sequence (P20816 5-504): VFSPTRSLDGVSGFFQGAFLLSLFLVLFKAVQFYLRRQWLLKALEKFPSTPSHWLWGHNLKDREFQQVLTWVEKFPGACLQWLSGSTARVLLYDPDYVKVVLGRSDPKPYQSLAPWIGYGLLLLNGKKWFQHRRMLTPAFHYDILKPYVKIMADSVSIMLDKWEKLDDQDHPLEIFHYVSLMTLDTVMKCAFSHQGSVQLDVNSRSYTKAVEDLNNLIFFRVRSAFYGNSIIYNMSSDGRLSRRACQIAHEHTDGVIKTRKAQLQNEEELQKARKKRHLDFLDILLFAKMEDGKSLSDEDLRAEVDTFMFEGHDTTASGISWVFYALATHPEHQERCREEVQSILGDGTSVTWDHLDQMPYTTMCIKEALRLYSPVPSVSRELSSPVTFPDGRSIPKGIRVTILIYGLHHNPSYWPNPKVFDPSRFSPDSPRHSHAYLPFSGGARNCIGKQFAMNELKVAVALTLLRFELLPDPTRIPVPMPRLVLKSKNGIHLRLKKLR
Briefly: TST oxidation by rat CYP 4A2.

Series [8] deals with T3, rat CYP 4A1 (Rattus norvegicus, UniProt P08516).
T3 sequence (P08516 1-509): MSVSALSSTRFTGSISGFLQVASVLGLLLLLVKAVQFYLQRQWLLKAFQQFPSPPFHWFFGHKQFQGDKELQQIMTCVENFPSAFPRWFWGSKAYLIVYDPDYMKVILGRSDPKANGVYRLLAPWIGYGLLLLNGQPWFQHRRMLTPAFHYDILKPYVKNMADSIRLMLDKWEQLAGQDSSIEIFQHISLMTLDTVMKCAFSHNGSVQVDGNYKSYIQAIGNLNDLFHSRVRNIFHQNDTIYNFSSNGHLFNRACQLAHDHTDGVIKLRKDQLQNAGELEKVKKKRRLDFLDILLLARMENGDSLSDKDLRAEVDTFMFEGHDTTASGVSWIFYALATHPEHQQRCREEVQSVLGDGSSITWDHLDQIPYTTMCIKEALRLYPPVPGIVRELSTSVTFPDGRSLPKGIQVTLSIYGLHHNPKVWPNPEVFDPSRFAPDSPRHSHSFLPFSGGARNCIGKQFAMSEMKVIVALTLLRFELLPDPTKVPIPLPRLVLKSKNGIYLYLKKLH
Briefly: TST oxidation by rat CYP 4A1.

Read-outs that look alike come from different tables or passages of the source.

`O=C(O)CCC/C=C\C/C=C\C/C=C\C/C=C\CCCCCO` [20-HETE, 20-hydroxyarachidonic acid]: the Renal vasoconstrictor activity entry in series [1] was “powerful renal vasoconstrictor”.

For the molecule `CCCCC/C=C\C/C=C\C/C=C\C/C=C\CCCC(=O)O` [AA, arachidonic acid], the AA metabolism entry in series [2] (purified recombinant Cyp 4a14, even with cytochrome b5, excess P450 reductase, GSH, EDTA, and/or sodium cholate) is listed as “did not metabolize AA”.

Take `C[C@]12CCC(=O)C[C@@H]1CC[C@@H]1[C@@H]2CC[C@]2(C)[C@@H](O)CC[C@@H]12` [DHT, 5-dihydrotestosterone]: the “Cyp 4a12 transcript expression in kidney” value in series [3] is “abundant and selective expression of 4a 12 transcripts in the renal cortex”. The “(20-HETE) % of total” value is reported as 82 % of total in series [4] (castrated male (+/+) mice), 82 % of total in series [4] (castrated male (−/−) mice), 76 % of total in series [4] (female (+/+) mice) and 77 % of total in series [4] (female (−/−) mice). For the same molecule, the ω-Hydroxylase rate in series [4] (castrated male (+/+) mice) is 228 ± 35 picomoles of product formed per minute per milligram of microsomal protein; in series [4] (castrated male (−/−) mice), 225 ± 23 picomoles of product formed per minute per milligram of microsomal protein; in series [4] (female (+/+) mice) it was 140 ± 3 picomoles of product formed per minute per milligram of microsomal protein; in series [4] (female (−/−) mice), 164 ± 3 picomoles of product formed per minute per milligram of microsomal protein. Besides, the concentration at 10 days in series [5] (castrated male Cyp 4a14 (+/+) mice) worked out at 2.64 ± 0.3 ng/mL; in series [5] (castrated male Cyp 4a14 (−/−) mice), 2.01 ± 0.1 ng/mL. Besides, the MABP in series [6] (DHT-treated castrated Cyp 4a14 (+/+) mice, n=10) is listed as 137±4 mm of Hg; in series [6] (DHT-treated control (noncastrated) Cyp 4a14 (+/+) mice, n=10), 140±5 mm of Hg; in series [6] (DHT-treated female Cyp 4a14 (+/+) mice), 132±4 mm of Hg; in series [6] (DHT-treated female Cyp 4a14 (−/−) mice), 133±4 mm of Hg. In series [6], the “Effect on hypertensive phenotype (blood pressure)” value is “restored the hypertensive phenotype”.

For the molecule `C[C@]12CC[C@H]3[C@@H](CCC4=CC(=O)CC[C@@]43C)[C@@H]1CC[C@@H]2O` [TST, testosterone], the TST oxidation result in series [7] and in series [8] was “neither recombinant Cyp 4a14 nor rat CYPs 4A1 or 4A2 catalyzed TST oxidation” in each case. The “Plasma TST level” value in series [5] (castrated Cyp 4a14 (−/−) mice given TST, n=7) is 1.8±0.04 ng TST/ml. For the same molecule, the “Effect on hypertensive phenotype (blood pressure)” value in series [6] is on record as “restored the hypertensive phenotype”.

As to `CCCCCCCCCCCC(=O)O` [lauric acid], the “Lauric acid oxidation rate” value in series [2] (purified recombinant Cyp 4a14) is given as 4.0±0.8 nmol product/min/nmol of P450.
